{"source": "patent US11512111B2", "about": "“Yeats inhibitors and methods of use thereof” (The University of Hong Kong, priority 2017, dated 2022)", "key": {"[1]": {"biological_target": "T1, ENL YEATS domain (Homo sapiens, UniProt Q03111)", "T1 construct": "His-SUMO-ENL (1-138); His (N); SUMO (N); made in house; host or cells: E. coli Rosetta", "T1 sequence (Q03111 1-138)": "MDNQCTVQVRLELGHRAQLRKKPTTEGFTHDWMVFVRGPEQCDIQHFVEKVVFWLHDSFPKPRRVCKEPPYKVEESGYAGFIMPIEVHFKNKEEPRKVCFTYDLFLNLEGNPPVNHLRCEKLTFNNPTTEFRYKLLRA", "assay": "Photo-cross-linking-based competition assay", "type": "binding", "settings": "competition with photoaffinity probe, in-gel fluorescence"}, "[2]": {"biological_target": "T2, ENL (Homo sapiens, UniProt Q03111)", "T2 construct": "expressed in transfected cells; host or cells: MOLM-13 (FLAG-ENL) cells", "T2 sequence (Q03111 1-559)": "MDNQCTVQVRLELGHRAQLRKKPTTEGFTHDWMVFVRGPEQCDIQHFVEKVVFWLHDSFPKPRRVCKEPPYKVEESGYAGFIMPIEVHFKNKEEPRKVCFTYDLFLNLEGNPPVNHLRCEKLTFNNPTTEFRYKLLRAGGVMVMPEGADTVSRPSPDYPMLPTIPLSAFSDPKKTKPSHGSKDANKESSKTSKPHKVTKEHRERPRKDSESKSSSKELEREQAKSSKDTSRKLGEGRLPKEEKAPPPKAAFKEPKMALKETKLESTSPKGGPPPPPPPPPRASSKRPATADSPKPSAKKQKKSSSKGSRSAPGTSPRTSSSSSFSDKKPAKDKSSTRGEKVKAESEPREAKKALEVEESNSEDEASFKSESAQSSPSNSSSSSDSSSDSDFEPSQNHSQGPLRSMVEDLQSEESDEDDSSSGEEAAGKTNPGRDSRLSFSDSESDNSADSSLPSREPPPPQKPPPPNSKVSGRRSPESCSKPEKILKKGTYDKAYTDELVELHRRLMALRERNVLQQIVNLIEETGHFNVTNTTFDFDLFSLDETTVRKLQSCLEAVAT", "assay": "ChIP-qPCR of ENL enrichment on genes in MOLM13 (FLAG-ENL) cells", "type": "cell-based", "settings": "50 μM, 72 hours", "from_the_text": "(§1) FIG. 49A is a graph showing the effect of treatment of MOLM13 cells with compound 39 (XL-13m) on the sensitivity of JQ1-induced decrease in c-Myc expression. Expression of c-Myc was quantified by qPCR. P value by student's t-test. Mean±s.d., three biological replicates. FIG. 49B is a graph showing the effect of treatment of MOLM13 cells with compound 39 (XL-13m) on enrichment of ENL on indicated genes. […] P value by student's t-test. Mean±s.d., triplicate PCR analysis.\nMOLM13 (FLAG-ENL) cells were cultured with or without 50 μM compound XL-13m for 72 hours. […] MOLM13 (FLAG-ENL) cells were incubated with or without 50 μM compound for 16 hours and then were collected for cellular thermal shift assay (CETSA) as previously reported. Anti-FLAG antibody was used to detect ENL proteins and γ-actin blotting served as negative control."}, "[3]": {"test_system": "c-Myc expression", "assay": "JQ1-induced decrease of c-Myc expression, qPCR", "type": "cell-based", "settings": "MOLM13 (FLAG-ENL), 50 μM, 24 hours then another 24 hours", "from_the_text": "as §1\n(§2) MOLM13 (FLAG-ENL) cells were cultured with or without 50 μM compound XL-13m. Every 2-3 days, live cells were counted by trypan blue exclusion assay and re-plated. […] MOLM13 (FLAG-ENL) cells were cultured with or without 50 μM compound XL-13m for 24 hours, and the cells were treated with 50 μM for another 24 hours. […] Expression of c-Myc was quantified by qPCR."}, "[4]": {"biological_target": "T3, AF9 YEATS domain (Homo sapiens, UniProt P42568)", "T3 construct": "His-AF9 (1-138); His (N); made in house; host or cells: E. coli Rosetta", "T3 sequence (P42568 1-138)": "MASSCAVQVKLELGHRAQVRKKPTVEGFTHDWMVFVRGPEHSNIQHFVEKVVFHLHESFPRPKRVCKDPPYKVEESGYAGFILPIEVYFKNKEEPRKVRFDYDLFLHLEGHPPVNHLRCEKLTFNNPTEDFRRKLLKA", "assay": "Photo-cross-linking-based competition assay (photoaffinity probe, click chemistry, in-gel fluorescence)", "type": "binding", "settings": "ratio of IC50 values", "protocol": "Mobile phase used were water with 0.1% trifluoroacetic acid (buffer A) and 90% acetonitrile in water with 0.1% trifluoroacetic acid (buffer B). The purity (>95%) and identity of peptides were confirmed by LC-MS. The inhibitory activities of the inhibitors were determined by a photo-cross-linking-based competition assay. […] The reactions were incubated for 1 h at r.t . . . . The reactions were quenched by adding 5 volumes of ice-cold acetone and placed at −20° C. overnight to precipitate proteins. After protein precipitation, samples were centrifuged at 6000×g for 5 min at 4° C. The supernatant was discarded and the pellet was washed with ice-cooled methanol twice and air-dried for 10 min. […] Samples were then resolved by SDS-PAGE. The labeled proteins were visualized by scanning the gel on a Typhoon 9410 variable mode imager (excitation 532 nm, emission filter 580 nm). A photo-cross-linking based method was used in this study to estimate inhibitory activity (FIG. 28). This method requires the use of a photoaffinity probe. The probe (probe 1 (SEQ ID NO:48), see below) is derived from a crotonylated peptide, ligand of the protein, carrying a photo-cross-linker and a terminal alkyne as bioorthogonal. The YEATS domain is incubated and bound to the probe through Kcr-dependent recognition. Upon UV-irradiation, the photo-cross-linker is activated and rapidly cross-linked to the protein, converting the non-covalent protein-probe interaction into a covalent linkage. The probe-labeled protein is subsequently conjugated to an azide-functionalized fluorescence dye (for example, rhodamine-N3, Rho-N3) via Cu(I)-catalyzed azide-alkyne cycloaddition (CuAAC, or “click” chemistry). After SDS-PAGE, the protein can be visualized by in-gel fluorescence scanning. If photo-cross-linking of the YEATS domain with photoaffinity probe is performed in the presence of an inhibitor, which occupies the Kcr binding pocket of the YEATS domain and thus inhibits the protein-probe interaction, the percentage of the YEATS domain in the sample that is labeled by the probe will be reduced. The in-gel fluorescence intensity detected will also be decreased. By varying the concentration of inhibitor added in the sample and quantifying the resulting fluorescence intensities, a competition curve of the inhibitor toward the protein-probe interaction will be obtained, which can be used to estimate the IC50 value. Due to the covalent nature of photo-cross-linking, weak protein-protein interactions can be captured and eventually visualized. The protein concentration used in the assay can be as low as several nanograms per microliter, while the fluorescence signal can still be robustly detected and quantified."}, "[5]": {"test_system": "MOLM13 (FLAG-ENL) cells", "assay": "Cell proliferation, trypan blue exclusion count", "type": "cell-based", "settings": "50 μM, live cells counted every 2-3 days", "protocol": "as §2"}, "[6]": {"biological_target": "T2, ENL", "assay": "Cellular thermal shift assay (CETSA) in MOLM-13 (FLAG-ENL) cells", "type": "cell-based", "settings": "MOLM13 (FLAG-ENL), 50 μM, 16 hours, anti-FLAG", "protocol": "We next applied the cellular thermal shift assay (CETSA) to examine if XL-13m was cell permeable and could target ENL in living cells. MOLM-13 (FLAG-ENL) were treated with XL-13m for […] and then heated at different temperature to denature and precipitate proteins. […] Soluble proteins were extracted by freeze-thaw cycle and subjected to western blotting analysis.\nMOLM13 (FLAG-ENL) cells were incubated with or without 50 μM compound for 16 hours and then were collected for cellular thermal shift assay (CETSA) as previously reported. Anti-FLAG antibody was used to detect ENL proteins and γ-actin blotting served as negative control."}}}
{"molecule": "CC(=O)N[C@@H](C)C(=O)N[C@@H](CCCNC(=N)N)C(=O)N[C@@H](CCCCNC(=O)c1cnco1)C(N)=O", "note": "[Compound 39]", "values": [{"measurement": "IC50", "setting": "[1]", "result": 560, "unit": "nM"}, {"measurement": "enrichment of ENL on indicated genes", "setting": "[2]", "result": "decrease of the enrichment of ENL"}, {"measurement": "sensitivity of JQ1-induced decrease of c-Myc expression", "setting": "[3]", "result": "increased the sensitivity"}, {"measurement": "activity on AF9 weaker than on ENL", "setting": "[4]", "result": 4.5, "unit": "fold"}, {"measurement": "effect on cell proliferation", "setting": "[5]", "result": "affected cell proliferation"}, {"measurement": "thermal shift: targeting of ENL protein in living cells", "setting": "[6]", "result": "revealed the target of ENL protein"}]}
